# Measured values from patent US4221794A, “Method of imparting immunomodulating and antiviral activity” (Newport Pharmaceuticals International, Inc., priority 1979, dated 1980).
# Values joined by “and” are separate entries in the source; they are usually repeats but may differ in a detail not shown here. Equal values may be shown once.
# Key:
# influenza virus [1] = test: microbe, parasite or virus in culture; assay type: cell-based, influenza virus Type A/USSR 90 (HeLa cell cultures); settings: for inhibition at 10 µg/mL / inhibition at 100 µg/mL: unidentified influenza virus; for inhibition at 10 µg/mL: read-out: % Inhibition of Hemadsorption Foci, Test Compound Conc. <10 μg/ml; for inhibition at 100 µg/mL: read-out: % Inhibition of Hemadsorption Foci, Test Compound Conc. >100 μg/ml; for % Inhibition of Hemadsorption Foci: Test Compound Conc. >100 μg/ml
# [2] = system: Influenza A Swine 1976 (Hlsw -N1); assay type: cell-based; settings: listed as 15417
# mouse lymphocytes = test: Mitogen (Con A) induced mouse lymphocyte (spleen cell) proliferation; assay type: cell-based; settings: for Maximum Percent Change, Mitogen Induced (Con A) Mouse Lymph. Prolif.: plus = immunostimulating, minus = immunoinhibiting, 0 = neither
# Source text: The following three assay procedures are used to evaluate the ability of the test substances to modulate the activity of several classes of cells in the immune system. In these systems it is possible to identify both immunopotentiating activity (evidence by an enhancement of the parameter examined) as well as immunosuppressant activity (evidenced by an inhibition of the parameter examined).
# 1. Mitogen-Induced Mouse Spleen Cell Assay
# Mouse spleen cells contain a population of both B and T lymphocytes which can be stimulated by a number of foreign substances (e.g., plant mitogens such as Con A) to proliferate. This enhanced proliferation is an indication of enhanced cell mediated immunity. The method below describes the system used to evaluate test substances as immunopotentiators.
# Concanavalin A (Calbiochem, La Jolla, California), Lot #210073, lyophilized in NaCl, was prepared first as a 1% solution and diluted as a 2×concentration for each dilution (0.5, 1.0, 2.5 μg/ml).
# Six to eight week old male Balb/c and C3 H inbred mice were obtained from the following sources: Flow Research Animals, Inc., Dublin, Virginia; Charles River Breeding Laboratories, Wilmington, Massachusetts; Laboratory Supply Company, Indianapolis, Indiana; and Lionel Strong Foundation, San Diego, California.
# Three to five mice were sacrificed by cervical dislocation and the spleens aseptically removed. Pooled spleens were minced and teased with sterile forceps; then strained through a double layer of nylon mesh. The cell suspension was washed once with 15 ml of RPMI 1640 supplemented with 5% fetal calf serum and antibiotics. Cells were cultured at a concentration of 10^6 cells/0.1 ml/well in micro-plates. Cultures were incubated in the presence or absence of mitogen in a humidified atmosphere containing 5% CO2 for 48 hours. The test compound was added to cultures at various concentrations concommitant with mitogen.
# Proliferation was assayed by the degree of incorporation of 1.0 μCi of [^3 H] thymidine over an 18 hour incubation period. Cultures were harvested by a MASH unit (Otto Hiller Co., Madison, Wisconsin) and thymidine incorporation was assayed by liquid scintillation spectrometry. Cultures were performed in triplicate and data are expressed as means plus or minus the standard error of the experimental means. Drug stimulation indices over control values were also calculated and portrayed graphically.
# (§1) Table 4 above presents the results of an evaluation of a number of these subject compounds as potentiators of the immune response. Three different test systems were used. The first involves a measure of the ability of the test compound to enhance the ability of mouse lymphocytes to proliferate in response to a plant mitogen (Con A). The second involves measuring the ability of the test compounds to enhance human lymphocyte proliferation in response to a second plant mitogen (PHA). The third system measures the ability of these test substances to enhance macrophage proliferation in response to a natural lymphokine (MMF, Macrophage Mitogenic Factor).
# [3] = system: human peripheral blood lymphocytes; test: Mitogen (PHA) induced human lymphocyte proliferation; assay type: cell-based; settings: plus = immunostimulating, minus = immunoinhibiting, 0 = neither
# guinea pig macrophages = test: Lymphokine (MMF) induced guinea pig macrophage proliferation; assay type: cell-based; settings: plus = immunostimulating, minus = immunoinhibiting, 0 = neither
# Procedure: 3. The macrophage represents a subpopulation of white blood cells which is an important component of the immune system in control of both cellular and humoral immunity. The assay system described below evaluates the substances studied as potentiators of macrophage function.
# Phytohemagglutinin (PHA) (HA-17) was purchased from Burroughs Wellcome. A preparation containing Macrophage Mitogen Factor (MMF) and Macrophage Activating Factor (MAF) was prepared from antigen-stimulated immune lymph node lymphocytes (guinea pig) as previously described by Hadden et al, Nature 257, 483-485 (1975). […] The active fraction was employed in both the proliferation and activation assays.
# Ficoll-hypaque purified human peripheral blood lymphocytes were prepared and PHA-induced lymphocyte proliferation was assayed by the incorporation of tritiated thymidine as described in Hadden et al., Cell. Immunol. 20, 98-103 (1975). Each compound was analyzed in the presence of suboptimal, optimal and supraoptimal concentrations of PHA (0.001, 0.01, 0.1 units/ml respectively). Paraffin oil-induced guinea pig peritoneal macrophages were prepared and incubated as monolayer culture (>98% pure macrophages). Lymphokine (MMF)-induced proliferation was assayed by the incorporation of tritiated thymidine at 3 and 5 days of culture as described, Hadden et al, Nature 257, 483-485 (1975). Lymphokine (MAF)-induced macrophage activation to kill Listeria monocytogenes following 5 days of culture in the presence or absence of MAF was performed during a 6 hour period as described in Hadden and England, Immunopharmacology, pages 87-100 (Plenum Press, 1977). Phagocytosis was quantitated during a 20-minute exposure to Listeria monocytogenes by counting the number of macrophages containing bacteria and the number of bacteria per phagocytic cell on gram stained monolayers in Labtek chambers. Intracellular killing of bacteria was evaluated by counting the number of cells containing bacteria and the number of bacteria/cell 6 hours after the initial 20 minute exposure. Parallel experiments in which macrophages were lysed and intracellular bacteria were cultured confirm the validity of bacterial activity determined by this manner in this system. The drugs were employed in each of the three systems over serial log concentration range in triplicate in the presence and absence of mitogen or lymphokine. Each type of experiment was performed at least three times. Previous experiments indicate a parallelism of response to pharmacologic modulation in the proliferation and achivation assays.
# as §1
# influenza virus [4] = test: Anti-influenza activity (overall); assay type: cell-based, several strains of A and B sub-types
# [5] = 1.0-10 (unit not printed), listed as 15417
compound,measurement,setting,value
CCCCCCC(CO)n1cnc2c(=O)[nH]cnc21 (stereo not drawn) [NPT 15417],inhibition at 10 µg/mL,influenza virus [1],18%
same,inhibition at 100 µg/mL,influenza virus [1],60%
same,% Inhibition,[2],50-70% and > 70%
same,"% Stimulation, Mitogen Induced Murine Lymphocyte Proliferation","mouse lymphocytes; 01-1.0 μg/ml, listed as 15417",0%
same,"% Stimulation, Mitogen Induced Murine Lymphocyte Proliferation","mouse lymphocytes; 1.0-10 μg/ml, listed as 15417",0%
same,"Maximum Percent Change, Mitogen Induced (Con A) Mouse Lymph. Prolif.",mouse lymphocytes; [5],0%
same,"% Stimulation, Mitogen Induced Murine Lymphocyte Proliferation","mouse lymphocytes; 10-100 μg/ml, listed as 15417",0%
same,"Maximum Percent Change, Mitogen Induced (Con A) Mouse Lymph. Prolif.","mouse lymphocytes; 10-100 (unit not printed), listed as 15417",0%
same,"Maximum Percent Change, Mitogen Induced (Con A) Mouse Lymph. Prolif.","mouse lymphocytes; .01-1.0 (unit not printed), listed as 15417",0%
same,"% Stimulation, Mitogen Induced Murine Lymphocyte Proliferation",mouse lymphocytes; >100 μg/ml,0%
same,"Maximum Percent Change, Mitogen Induced (PHA) Human Lymph. Prolif.",[3]; 1.0-10 (unit not given),0%
same,"Maximum Percent Change, Mitogen Induced (PHA) Human Lymph. Prolif.",[3]; 10-100 (unit not given),-50%
same,"Maximum Percent Change, Mitogen Induced (PHA) Human Lymph. Prolif.",[3]; .01-1.0 (unit not given),0%
same,"Maximum Percent Change, Lymphokine Induced (MMF) Guinea Pig Mac. Prolif.",guinea pig macrophages; [5],13%
same,"Maximum Percent Change, Lymphokine Induced (MMF) Guinea Pig Mac. Prolif.",guinea pig macrophages; 10-100 (unit not given),-50%
same,anti-influenza activity (in words),influenza virus [4]; compound by itself,significant anti-influenza activity
same,inhibit the replication of different strains of influenza virus (number of strains),influenza virus [4]; concentrations ranging from 1-150 μg/ml,at least 4 different strains
"CC(CO)n1cnc2c(Cl)ncnc21 (stereo not drawn) [NPT 15423, 9-(1-HYDROXY-2-PROPANE)-6-CHLOROPURINE]",inhibition at 10 µg/mL,influenza virus [1],2%
same,inhibition at 100 µg/mL,influenza virus [1],6%
"O=c1[nH]cnc2c1ncn2CCO [NPT 15425, 9-HYDROXYETHYL HYPOXANTHINE]","Maximum Percent Change, Mitogen Induced (Con A) Mouse Lymph. Prolif.",mouse lymphocytes; 1.0-10 (unit not given),0%
same,"Maximum Percent Change, Mitogen Induced (Con A) Mouse Lymph. Prolif.",mouse lymphocytes; .01-1.0 (unit not given),11%
same,"Maximum Percent Change, Mitogen Induced (PHA) Human Lymph. Prolif.",[3]; 1.0-10 (unit not given),0%
same,"Maximum Percent Change, Mitogen Induced (PHA) Human Lymph. Prolif.",[3]; 10-100 (unit not given),0%
same,"Maximum Percent Change, Mitogen Induced (PHA) Human Lymph. Prolif.",[3]; .01-1.0 (unit not given),100%
"CC(O)Cn1cnc2c(N)ncnc21 (stereo not drawn) [NPT 15431, 9-(2-HYDROXY-1-PROPYL)ADENINE]",% Inhibition of Hemadsorption Foci,influenza virus [1]; listed as 15431,0%
same,"Maximum Percent Change, Mitogen Induced (Con A) Mouse Lymph. Prolif.",mouse lymphocytes; 1.0-10 (unit not given),-27%
same,"Maximum Percent Change, Mitogen Induced (Con A) Mouse Lymph. Prolif.",mouse lymphocytes; 10-100 (unit not given),-47%
same,"Maximum Percent Change, Mitogen Induced (Con A) Mouse Lymph. Prolif.",mouse lymphocytes; .01-1.0 (unit not given),-15%
same,"Maximum Percent Change, Mitogen Induced (PHA) Human Lymph. Prolif.",[3]; 1.0-10 (unit not given),0%
same,"Maximum Percent Change, Mitogen Induced (PHA) Human Lymph. Prolif.",[3]; 10-100 (unit not given),0%
same,"Maximum Percent Change, Mitogen Induced (PHA) Human Lymph. Prolif.",[3]; .01-1.0 (unit not given),0%
CC(O)Cn1cnc2c(N)ncnc21 (stereo not drawn) [NPT 15432],% Inhibition of Hemadsorption Foci,influenza virus [1]; listed as 15432,62%
same,potentiation of anti-influenza activity by DIP.PAcBA salt,influenza virus [4],Yes
"CC(CO)n1cnc2c(N)ncnc21 (stereo not drawn) [NPT 15433, 9-(1-HYDROXY-2-PROPYL)ADENINE]",% Inhibition of Hemadsorption Foci,influenza virus [1]; listed as 15433,0%
same,"Maximum Percent Change, Mitogen Induced (Con A) Mouse Lymph. Prolif.",mouse lymphocytes; 1.0-10 (unit not given),-23%
same,"Maximum Percent Change, Mitogen Induced (Con A) Mouse Lymph. Prolif.",mouse lymphocytes; 10-100 (unit not given),-65%
same,"Maximum Percent Change, Mitogen Induced (Con A) Mouse Lymph. Prolif.",mouse lymphocytes; .01-1.0 (unit not given),+15%
same,"Maximum Percent Change, Mitogen Induced (PHA) Human Lymph. Prolif.",[3]; 1.0-10 (unit not given),0%
same,"Maximum Percent Change, Mitogen Induced (PHA) Human Lymph. Prolif.",[3]; 10-100 (unit not given),-50%
same,"Maximum Percent Change, Mitogen Induced (PHA) Human Lymph. Prolif.",[3]; .01-1.0 (unit not given),53%
CC(CO)n1cnc2c(N)ncnc21 (stereo not drawn) [NPT 15434],% Inhibition of Hemadsorption Foci,influenza virus [1]; listed as 15434,62%
same,potentiation of anti-influenza activity by DIP.PAcBA salt,influenza virus [4],Yes
